Bridge positions count the residues as written; N and C are the ends. Square brackets hold non-standard residues; d marks the D form. Peptide text beside a SMILES is read from it. * marks the point of attachment. Phe(4-CH2CH2COOH) = N[C@@H](Cc1ccc(CCC(=O)O)cc1)C(=O)O; Phe(4-COOH) = N[C@@H](Cc1ccc(C(=O)O)cc1)C(=O)O; Phe(2-CF3) = N[C@@H](Cc1ccccc1C(F)(F)F)C(=O)O; Bip = N[C@@H](Cc1ccc(-c2ccccc2)cc1)C(=O)O; Phe(3-Me) = Cc1cccc(C[C@H](N)C(=O)O)c1; Dap(CONH2) = NC(=O)NC[C@H](N)C(=O)O; Cha = N[C@@H](CC1CCCCC1)C(=O)O; Carboxymethyl = O=C(O)C*; NMeA = CN[C@@H](C)C(=O)O; Orn = NCCC[C@H](N)C(=O)O; Dab = NCC[C@H](N)C(=O)O
Key:
[1] = target: T1, PD1-PDL1 protein-protein binding interaction [hPD1(25-167)-hIgG, hPD-L1 (19-239)-6xHis] (Homo sapiens, UniProt Q15116); test: HTRF Assay (TR-FRET); conditions: 5 nM hPD1-hIgG, 5 nM hPD-L1-6xHis, 24 hours at 25° C., head μM
T1 construct: hPD1(25-167)-hIgG, BMS
Method: A time-resolved fluorescence resonance energy transfer (TR-FRET) assay was employed to measure the inhibition of the PD1-PDL1 protein-protein binding interaction. The reaction buffer was prepared by mixing the HiBlock buffer and LANCE detection buffer (PerkinElmer, TRF1011F and CR97-100) at a 1:1 ratio. Assay reactions contained 5 nM human programmed cell death 1 [hPD1(25-167)-hIgG, BMS], 5 nM human programmed cell death ligand 1 [hPD-L1 (19-239)-6×His, BMS], in the presence of 1 nM LANCE Eu-W1024 Anti-Human IgG (Eu-anti hIgG, PerkinElmer, AD0074) and 20 nM SureLight Allophycocyanin-anti-6×His antibody (APC-anti-6×His, PerkinElmer, AD0059H). Test compounds were evaluated in a 10-point dose-response format with serial three-fold dilutions starting from a 2 uM top concentration. Reactions were carried out in a total volume of 10 uL in 384-well microtiter plates (Proxiplate white, PerkinElmer, 6008289). Plates were sealed and incubated for 24 hours at 25° C. After 24 hours, the TR-FRET signal was measured using a PerkinElmer EnVision multimode plate reader and the resulting ratiometric data set (signal at 665 nm/615 nm, multiplied by a factor of 10,000) was recorded. The concentration giving half-maximal inhibition (the IC50) was obtained by fitting the data to a four-parameter logistic equation using Graphpad Prism or Dotmatics.

[2] = target: T2, Alexa fluor-647 labeled human PD-L1-Ig binding to Jurkat cell line over-expressing human PD-1 (Homo sapiens, UniProt Q15116); test: Jurkat-PD-1 Cell Binding High-Content Screening Assay (CBA): Method 3 (Alexa fluor-647 labeled PD-L1-Ig); conditions: Jurkat-PD-1 cells, Alexa fluor-647 labeled PD-L1-Ig 177 nM; nM; read-out: CBA Method 3
T2 construct: expressed in transfected cells; host or cells: Jurkat
How it was run: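 Readout by high-content imaging of PFA-fixed, Hoechst-stained cells after 1 h with 177 nM (final) Alexa fluor-647 PD-L1-Ig. Compound was added first to hPD-1 Jurkat cells in RPMI plus 10% FCS for 2 h at 37 °C.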

T1 sequence (Q15116 25-167): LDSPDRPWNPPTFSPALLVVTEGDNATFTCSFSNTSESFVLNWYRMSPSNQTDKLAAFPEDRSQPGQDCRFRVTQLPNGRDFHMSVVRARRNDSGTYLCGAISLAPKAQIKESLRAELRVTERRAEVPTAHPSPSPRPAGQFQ
T2 sequence (Q15116 25-288): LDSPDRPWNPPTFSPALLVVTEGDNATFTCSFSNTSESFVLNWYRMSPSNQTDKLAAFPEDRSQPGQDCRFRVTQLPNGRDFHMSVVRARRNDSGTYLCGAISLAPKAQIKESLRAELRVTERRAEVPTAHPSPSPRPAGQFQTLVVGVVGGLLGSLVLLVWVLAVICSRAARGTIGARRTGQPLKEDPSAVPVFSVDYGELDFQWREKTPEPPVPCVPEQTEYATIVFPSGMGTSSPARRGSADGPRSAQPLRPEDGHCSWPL

IC50 [1] | IC50 [2] | Compound
0.03 µM | 0.2 nM | Cc1cccc(C[C@@H]2NC(=O)[C@H](CC(=O)O)NC(=O)[C@H](Cc3ccc(OCC(=O)O)cc3)NC(=O)[C@H](Cc3ccccc3C(F)(F)F)NC(=O)CSC[C@@H](C(=O)N[C@@H](CCN)C(N)=O)NC(=O)[C@H](CCCN)NC(=O)[C@H](C(C)C)NC(=O)[C@H](CC3CCCCC3)NC(=O)[C@H](CCN)NC(=O)[C@@H](CC(C)C)NC(=O)[C@H](C)N(C)C(=O)[C@H](CCC(N)=O)NC(=O)[C@H](Cc3ccc(-c4ccccc4)cc3)NC(=O)[C@H](Cc3ccc(C(=O)O)cc3)NC2=O)c1 [Example 5292] ({CH2CO}-[Phe(2-CF3)]Y(Carboxymethyl)D[Phe(3-Me)][Phe(4-COOH)][Bip]Q[NMeA][dL][Dab][Cha]V[Orn]C[Dab]-NH2; thioether N-14)
0.01 µM | 0.5 nM | Cc1cccc(C[C@@H]2NC(=O)[C@H](CC(=O)O)NC(=O)[C@H](Cc3ccc(CCC(=O)O)cc3)NC(=O)[C@H](CNC(N)=O)NC(=O)CSC[C@@H](C(=O)N[C@@H](CCN)C(N)=O)NC(=O)[C@H](CCCN)NC(=O)[C@H](C(C)C)NC(=O)[C@H](CC3CCCCC3)NC(=O)[C@H](CCN)NC(=O)[C@@H](CC(C)C)NC(=O)[C@H](C)N(C)C(=O)[C@H](CCC(N)=O)NC(=O)[C@H](Cc3ccc(-c4ccccc4)cc3)NC(=O)[C@H](Cc3ccc(C(=O)O)cc3)NC2=O)c1 [Example 5298] ({CH2CO}-[Dap(CONH2)][Phe(4-CH2CH2COOH)]D[Phe(3-Me)][Phe(4-COOH)][Bip]Q[NMeA][dL][Dab][Cha]V[Orn]C[Dab]-NH2; thioether N-14)

— patent US20240409585A1, “MACROCYCLIC IMMUNOMODULATORS” (priority 2021, published 2024)
